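Exposure lasted 48 hours, with cells grown in 96-well plates and compounds tested at five concentrations. At the GI50, growth is halved.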 The source made the active and inactive calls. Cut-off read from the data, not from the text of the source: active = GI50 up to about 1.1 µM and inactive = higher.
Key:
Assay in all cases: DTP human tumour cell line panel, 48 h
ACHN = test system: ACHN
UACC-62 = test system: UACC-62
SF-539 = test system: SF-539
NCI-H23 = test system: NCI-H23
SK-OV-3 = test system: SK-OV-3
786-0 = test system: 786-0
U-251 = test system: U-251
SK-MEL-28 = test system: SK-MEL-28
HOP-62 = test system: HOP-62
OVCAR-8 = test system: OVCAR-8
LOX IMVI = test system: LOX IMVI
EKVX = test system: EKVX
K562 = test system: K562
OVCAR-4 = test system: OVCAR-4
Malme-3M = test system: Malme-3M
HCC 2998 = test system: HCC 2998
SR = test system: SR

Measured: GI50

CCOc1ccc(/N=C\c2cc(OC)c(OC)c(OC)c2)cc1
inactive: ACHN > 100 µM | UACC-62 > 100 µM | SF-539 > 100 µM | NCI-H23 > 100 µM | SK-OV-3 > 100 µM | 786-0 > 100 µM | U-251 > 100 µM | SK-MEL-28 > 100 µM | HOP-62 > 100 µM | OVCAR-8 > 100 µM | LOX IMVI > 100 µM | EKVX > 100 µM | K562 52.5 µM | OVCAR-4 > 100 µM | Malme-3M > 100 µM

CC(C)N1CC2CC(CN(C(=O)c3ccccc3)C2)C1.[O-][Cl+3]([O-])([O-])O
inactive: ACHN > 100 µM | UACC-62 > 100 µM | SF-539 > 100 µM | NCI-H23 > 100 µM | SK-OV-3 > 100 µM | 786-0 > 100 µM | U-251 > 100 µM | SK-MEL-28 > 100 µM | HCC 2998 > 100 µM | HOP-62 > 100 µM | OVCAR-8 > 100 µM | LOX IMVI > 100 µM | EKVX > 100 µM | K562 > 100 µM | OVCAR-4 > 100 µM | Malme-3M > 100 µM

COc1cc(/C=C/C(=O)c2sc(Nc3ccccc3)nc2C)ccc1O
inactive: ACHN 50.5 µM | UACC-62 82.8 µM | SF-539 > 100 µM | NCI-H23 > 100 µM | SK-OV-3 > 100 µM | 786-0 > 100 µM | U-251 > 100 µM | SK-MEL-28 > 100 µM | HCC 2998 > 100 µM | HOP-62 40.7 µM | OVCAR-8 96.8 µM | LOX IMVI 48.5 µM | EKVX 19.8 µM | K562 56.4 µM | Malme-3M > 100 µM

COc1ccc(C2S/C(=C\c3cccc([N+](=O)[O-])c3)C(=O)N2NC(=O)Cc2ccccc2)cc1 (stereo not given)
inactive: ACHN > 100 µM | UACC-62 > 100 µM | SF-539 > 100 µM | NCI-H23 > 100 µM | SK-OV-3 > 100 µM | SR > 100 µM | 786-0 > 100 µM | U-251 > 100 µM | SK-MEL-28 > 100 µM | HOP-62 > 100 µM | OVCAR-8 > 100 µM | LOX IMVI > 100 µM | K562 > 100 µM | OVCAR-4 > 100 µM | Malme-3M > 100 µM

COc1ccc(C(=O)C(C(=O)C(=O)Nc2nccs2)c2ccc(OC)cc2)cc1 (stereo not given)
inactive: ACHN > 100 µM | UACC-62 > 100 µM | SF-539 > 100 µM | NCI-H23 > 100 µM | SK-OV-3 > 100 µM | 786-0 > 100 µM | U-251 > 100 µM | SK-MEL-28 > 100 µM | OVCAR-8 > 100 µM | LOX IMVI > 100 µM | K562 > 100 µM | OVCAR-4 > 10 µM | Malme-3M > 100 µM

CC1=C(C(=O)Nc2cc(F)c(F)cc2F)C(c2ccc3c(c2)OCO3)C(C(=O)Nc2cc(F)c(F)cc2F)=C(C)N1
inactive: ACHN 19.1 µM | SF-539 27.5 µM | NCI-H23 19.8 µM | SK-OV-3 19.4 µM | 786-0 18.3 µM | U-251 27.2 µM | SK-MEL-28 33.2 µM | HCC 2998 19.2 µM | HOP-62 16.8 µM | OVCAR-8 31 µM | LOX IMVI 14.4 µM | EKVX 18 µM | K562 17.9 µM | OVCAR-4 19.6 µM | Malme-3M 23.3 µM

O=C(c1ccc(Cl)cc1)c1ccc(OCCCCCCCCCCOc2ccc(C(=O)c3ccc(Cl)cc3)cc2)cc1
inactive: ACHN > 100 µM | UACC-62 > 100 µM | NCI-H23 > 100 µM | SK-OV-3 > 100 µM | 786-0 > 100 µM | U-251 > 100 µM | SK-MEL-28 > 100 µM | HCC 2998 > 100 µM | HOP-62 > 100 µM | OVCAR-8 > 100 µM | LOX IMVI > 100 µM | EKVX > 100 µM | K562 > 100 µM | Malme-3M > 100 µM

C[C@@H]1CC(=O)C2CCCC1C2=O (stereo not given in full)
inactive: ACHN > 100 µM | UACC-62 > 100 µM | SF-539 > 100 µM | SK-OV-3 > 100 µM | SR > 100 µM | 786-0 > 100 µM | U-251 > 100 µM | SK-MEL-28 > 100 µM | HCC 2998 > 100 µM | HOP-62 > 100 µM | OVCAR-8 > 100 µM | LOX IMVI > 100 µM | EKVX > 100 µM | OVCAR-4 > 100 µM | Malme-3M > 100 µM

COc1cc(C(=O)C/C(CCC(=O)Nc2ccccc2[N+](=O)[O-])=N\NC(N)=O)ccc1O
inactive: ACHN > 100 µM | UACC-62 > 100 µM | SF-539 > 100 µM | NCI-H23 > 100 µM | SK-OV-3 > 100 µM | SR > 100 µM | 786-0 > 100 µM | U-251 > 100 µM | SK-MEL-28 > 100 µM | HCC 2998 > 100 µM | HOP-62 > 100 µM | OVCAR-8 > 100 µM | LOX IMVI > 100 µM | EKVX 32.9 µM | K562 > 100 µM | Malme-3M > 100 µM

COC(=O)C1=C(C(=O)OC)C2C=CC1C1C(Cl)=C(Cl)C21 (stereo not given)
inactive: ACHN > 100 µM | UACC-62 > 100 µM | SF-539 > 100 µM | NCI-H23 > 100 µM | SK-OV-3 > 100 µM | 786-0 > 100 µM | U-251 > 100 µM | SK-MEL-28 > 100 µM | HCC 2998 > 100 µM | HOP-62 > 100 µM | OVCAR-8 > 100 µM | LOX IMVI > 100 µM | EKVX > 100 µM | K562 > 100 µM | OVCAR-4 > 100 µM | Malme-3M > 100 µM

CC(=O)Nc1ccc(-c2nnc(SCC(=O)Nc3ccccc3[N+](=O)[O-])o2)cc1
inactive: ACHN > 100 µM | UACC-62 > 100 µM | SF-539 34.6 µM | NCI-H23 > 100 µM | SK-OV-3 > 100 µM | SR 40.7 µM | 786-0 > 100 µM | U-251 > 100 µM | SK-MEL-28 > 100 µM | HOP-62 > 100 µM | OVCAR-8 > 100 µM | LOX IMVI > 100 µM | K562 93.1 µM | OVCAR-4 73.1 µM | Malme-3M > 100 µM

C1CCOC2(CCC3(CC2)OCCCCO3)OC1
inactive: ACHN > 100 µM | UACC-62 > 100 µM | SF-539 > 100 µM | SK-OV-3 > 100 µM | SR > 100 µM | 786-0 > 100 µM | U-251 > 100 µM | SK-MEL-28 > 100 µM | HCC 2998 > 100 µM | HOP-62 > 100 µM | OVCAR-8 > 100 µM | K562 > 100 µM | OVCAR-4 > 100 µM | Malme-3M > 100 µM

Cn1c2ccccc2c2[nH]cc3nc4ccccc4c-3c21
inactive: ACHN 20.4 µM | UACC-62 18.5 µM | SF-539 18 µM | NCI-H23 17.1 µM | SK-OV-3 24.3 µM | 786-0 > 100 µM | U-251 18.2 µM | SK-MEL-28 14.8 µM | HCC 2998 > 100 µM | HOP-62 > 100 µM | OVCAR-8 20.3 µM | LOX IMVI 21.3 µM | EKVX 9.71 µM | K562 26.7 µM | OVCAR-4 15.6 µM | Malme-3M > 100 µM
